Results from USRE42890E1, “Furazanobenzimidazoles” (Basilea Pharmaceutica AG, priority 2003, dated 2011).

Key:
Jily = assay: MTS proliferation assay, Jily; type: cell-based; conditions: 72 h incubation, read-out: MTS proliferation assay IC 50 Jily
How it was run: (§1)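 Cells in RPMI-1640 with 5% or 10% FCS, 2-mercaptoethanol and glutamine were seeded 24 h before treatment with compound at final 10, 3, 1 and 0.3 μM. After 72 h at 37° C and 7.5% CO2, MTS reagent was added for 3 h and absorbance read at 492 nm.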

Jurkat = assay: MTS proliferation assay, Jurkat; type: cell-based, human; conditions: 72 h incubation, read-out: MTS proliferation assay IC 50 Jurkat
How it was run: (§2)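 Cells were seeded 24 h before treatment and exposed to compound at 10, 3, 1 and 0.3 μM final for 72 h at 37 °C, 7.5% CO2 in RPMI-1640 with 5% or 10% FCS. Viability was read by MTS reagent (3 h) as absorbance at 492 nm.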

HeLa = assay: MTS proliferation assay, HeLa; type: cell-based, human; conditions: 72 h incubation, read-out: MTS proliferation assay IC 50 HeLa
How it was run: as §2

[1] = test system: adherent cells or suspension cells; assay: Hoechst 33342 nuclear staining (fraction of apoptotic nuclei); type: cell-based; parameters: key: 0 relating to no activity; 1 relating to weak activity comprising less than 70% of the cells; score 2 relating to strong activity comprising more than 70% of the cells
HT1080 = assay: MTS proliferation assay, HT1080; type: cell-based, human; conditions: HT1080, 72 h incubation; read-out: MTS proliferation assay IC 50 HT1080
How it was run: as §2

MRC5 = assay: MTS proliferation assay, MRC5; type: cell-based; conditions: MRC5, 72 h incubation; read-out: MTS proliferation assay IC 50 MRC5
How it was run: as §1

Row | SMILES | IC50 (Jily) | IC50 (Jurkat) | IC50 (HeLa) | Hoechst 33342 nuclear staining score ([1]; H460, conc 0.01 μm) | Hoechst 33342 nuclear staining score ([1]; H460, conc 0.1 μm) | Hoechst 33342 nuclear staining score ([1]; H460, conc 1 μm) | Hoechst 33342 nuclear staining score ([1]; HeLa, conc 0.01 μm) | Hoechst 33342 nuclear staining score ([1]; HeLa, conc 0.1 μm) | Hoechst 33342 nuclear staining score ([1]; HeLa, conc 1 μm) | Hoechst 33342 nuclear staining score ([1]; Jily, conc 0.01 μm) | Hoechst 33342 nuclear staining score ([1]; Jily, conc 0.1 μm) | Hoechst 33342 nuclear staining score ([1]; Jily, conc 1 μm) | Hoechst 33342 nuclear staining score ([1]; Jurkat, conc 0.01 μm) | Hoechst 33342 nuclear staining score ([1]; Jurkat, conc 0.1 μm) | Hoechst 33342 nuclear staining score ([1]; Jurkat, conc 1 μm) | Hoechst 33342 nuclear staining score ([1]; MRC5, conc 0.01 μm) | Hoechst 33342 nuclear staining score ([1]; MRC5, conc 0.1 μm) | Hoechst 33342 nuclear staining score ([1]; MRC5, conc 1 μm) | Hoechst 33342 nuclear staining score ([1]; PBLs, conc 0.01 μm) | Hoechst 33342 nuclear staining score ([1]; PBLs, conc 0.1 μm) | further results
1 | Nc1nonc1-c1nc2ccccc2n1COc1ccc(CO)cc1 [Example 97] | 100 to 1000 nM | 100 to 1000 nM | 100 to 1000 nM | 0 | 0 | 2 (score 2 relating to strong activity comprising more than 70% of the cells) | 0 | 0 | 2 (score 2 relating to strong activity comprising more than 70% of the cells) | 0 | 0 | 2 (score 2 relating to strong activity comprising more than 70% of the cells) | 0 | 0 | 2 (score 2 relating to strong activity comprising more than 70% of the cells) | 0 | 0 | 0 | 0 | 0 | Hoechst 33342 nuclear staining score ([1]; PBLs, conc 1 μm): 0; IC50 (HT1080): 100 to 1000 nM; IC50 (MRC5): 100 to 1000 nM
2 | Nc1nonc1-c1nc2ccccc2n1COc1ccc(C=O)cc1 [Example 96] | 100 to 1000 nM | 100 to 1000 nM | 100 to 1000 nM | 0 | 0 | 1 (1 relating to weak activity comprising less than 70% of the cells) | 0 | 0 | 2 (score 2 relating to strong activity comprising more than 70% of the cells) | 0 | 0 | 2 (score 2 relating to strong activity comprising more than 70% of the cells) | 0 | 0 | 2 (score 2 relating to strong activity comprising more than 70% of the cells) | 0 | 0 | 0 | 0 | 0 | Hoechst 33342 nuclear staining score ([1]; PBLs, conc 1 μm): 0; IC50 (HT1080): 100 to 1000 nM; IC50 (MRC5): 100 to 1000 nM
3 | COc1ccc(C(=O)Cn2c(-c3nonc3N)nc3ccccc32)cc1[N+](=O)[O-] [Example 68] | 10 to 100 nM | 10 to 100 nM | 100 to 1000 nM | 0 | 0 | 2 (score 2 relating to strong activity comprising more than 70% of the cells) | 0 | 0 | 2 (score 2 relating to strong activity comprising more than 70% of the cells) | 0 | 1 (1 relating to weak activity comprising less than 70% of the cells) | 1 (1 relating to weak activity comprising less than 70% of the cells) | 0 | 2 (score 2 relating to strong activity comprising more than 70% of the cells) | 2 (score 2 relating to strong activity comprising more than 70% of the cells) | 0 | 0 | 1 (1 relating to weak activity comprising less than 70% of the cells) | 0 | 0 | Hoechst 33342 nuclear staining score ([1]; PBLs, conc 1 μm): 0; IC50 (HT1080): 100 to 1000 nM; IC50 (MRC5): 100 to 1000 nM
4 | N#CCCNc1nonc1-c1nc2ccccc2n1CC(=O)c1ccc2ccccc2c1 [Example 46] | 10 to 100 nM | < 10 nM | 10 to 100 nM | 0 | 0 | 2 (score 2 relating to strong activity comprising more than 70% of the cells) | 0 | 0 | 2 (score 2 relating to strong activity comprising more than 70% of the cells) | 0 | 2 (score 2 relating to strong activity comprising more than 70% of the cells) | 2 (score 2 relating to strong activity comprising more than 70% of the cells) | 0 | 2 (score 2 relating to strong activity comprising more than 70% of the cells) | 2 (score 2 relating to strong activity comprising more than 70% of the cells) | 0 | 0 | 2 (score 2 relating to strong activity comprising more than 70% of the cells) | 0 | 0 | Hoechst 33342 nuclear staining score ([1]; PBLs, conc 1 μm): 0; IC50 (HT1080): 10 to 100 nM; IC50 (MRC5): 100 to 1000 nM
5 | Nc1ccc(C(=O)Cn2c(-c3nonc3N)nc3ccccc32)cc1.O=C(O)C(=O)O [Example 62] | 10 to 100 nM | 10 to 100 nM | 100 to 1000 nM | 0 | 2 (score 2 relating to strong activity comprising more than 70% of the cells) | 2 (score 2 relating to strong activity comprising more than 70% of the cells) | 0 | 2 (score 2 relating to strong activity comprising more than 70% of the cells) | 2 (score 2 relating to strong activity comprising more than 70% of the cells) | 0 | 2 (score 2 relating to strong activity comprising more than 70% of the cells) | 2 (score 2 relating to strong activity comprising more than 70% of the cells) | 0 | 2 (score 2 relating to strong activity comprising more than 70% of the cells) | 2 (score 2 relating to strong activity comprising more than 70% of the cells) | 0 | 2 (score 2 relating to strong activity comprising more than 70% of the cells) | 2 (score 2 relating to strong activity comprising more than 70% of the cells) | 0 | 0 | Hoechst 33342 nuclear staining score ([1]; PBLs, conc 1 μm): 0; IC50 (HT1080): 10 to 100 nM; IC50 (MRC5): 10 to 100 nM
